Test results taken from the NIST ThermoML archive (doi:10.1021/acs.jced.7b00827).
± gives the expanded uncertainty stated by the source. Each block holds one molecule with its values, some of them ahead of it.

Tests used:
[1] = refractive index (Na D-line) (dimensionless); conditions: 101.33 kPa, Standard Abbe refractometry
[2] = Liquid, Ebulliometric method (Recirculating still)

refractive index ([1]; 294.15 K, Liquid): 1.4625 ± 0.0008
vapor or sublimation pressure ([2]; 468.25 K): 20 ± 0.2 kPa
Normal boiling temperature [2]: 249.1 ± 1 °C
Structure (SMILES): CC(O)CNCC(C)O (stereo not drawn) [N-(2-hydroxypropyl)-2-hydroxy-1-propanamine]

refractive index ([1]; 293.15 K, Liquid): 1.5396 ± 0.0008
refractive index ([1]; 298.15 K, Liquid): 1.5374 ± 0.0008
vapor or sublimation pressure ([2]; 422.28 K): 20 ± 0.2 kPa
Normal boiling temperature [2]: 202.20 ± 1 °C
Structure (SMILES): Cc1cccc(O)c1 [3-methylphenol]

refractive index ([1]; 293.15 K, Metastable liquid): 1.5075 ± 0.0008
refractive index ([1]; 298.15 K, Metastable liquid): 1.5053 ± 0.0008
vapor or sublimation pressure ([2]; 418.21 K): 20 ± 0.2 kPa
Normal boiling temperature [2]: 201.20 ± 1 °C
Structure (SMILES): Cc1cccc(C)c1O [2,6-dimethylphenol]

vapor or sublimation pressure ([2]; 373.05 K): 101.3 ± 0.5 kPa
Structure (SMILES): O [water]

vapor or sublimation pressure ([2]; 351.38 K): 101.3 ± 0.5 kPa
Structure (SMILES): CCO [ethanol]
